System: B16-OVA melanoma
Test: Adoptive cell transfer of compound-treated OT1 CD8 T cells in B16-OVA melanoma tumor model
Type: in vivo, mouse
Description: Activated CD45.1+OT-1 splenocytes were culture in vitro for 7 days as described above, collected and purified on a Ficoll gradient, allowing to separate dead and live splenocytes. Live splenocytes were counted with Trypan blue stain 0.4%. 100′000 or 2′000′000 live splenocytes were transferred into CD45.2+ host mice by tail vein injection.
B16-OVA cells were cultured in DMEM (GIBCO) with 10% FBS and 1% P/S before their subcutaneous injection into the mouse flank. Each mouse received 100′000 cells in a volume of 200 μl of PBS. 6 days after B16-OVA cells injection, tumors were measured, mice were randomized and lymphodepleted by irradiation (5 Gray). 7 days after B16-Ova injection, mice were adoptively transferred with the ACT protocol described previously. Following the ACT, mice received a vaccination of CpG (50 μg/mouse) and N4 Ova peptide (10 μg/mouse) diluted in PBS to obtain a total volume of 100 μl/mouse, injected subcutaneously at the tail base. Tumors were measured every 2 days and the tumor volume was calculated according to the formula: V=π×[d2×D]/6, where d is the minor tumor axis and D is the major tumor axis. At day 26 days post-tumor engraftment, tumors and spleens were dissected were then stained for flow cytometry analyses.
Briefly, 105 ovalbumin-expressing B16 melanoma cells were injected subcutaneously in 6-week-old mice. At day 6 post-engraftment, when a palpable tumor was present, mice were irradiated with 5Gy. The next day 105 Compound 45- or DMSO-treated OT1 cells were intravenously injected, followed by a subcutaneous vaccination of 50 μg CpG and 10 μg N4 Ova peptide (FIG. 2A). […] When analysing the blood 9 days post-adoptive cell transfer, one could observe an increase in number of transferred cells when treated in vitro with Compound 45 as compared to DMSO (FIG. 2D). The phenotype of the Compound 45-treated cells was biased towards memory, as there was a reduced percentage of short-lived effector T cells (FIG. 2E) and an increase in memory-precursor effector T cells and cells with a central memory phenotype (FIGS. 2F and 2G). When analysing the tumor upon dissection, more Compound 45-treated T cells were infiltrating the tumor (FIG. 2H).
In order to observe a stronger anti-tumor response of the transferred OT1 T cells, the previous experiment was repeated by transferring 2×10^6 DMSO- or Compound 45-treated OT1 T cells, instead of only 10^5 (FIG. 3A). […] When analysing the tumor upon dissection, no difference in T cell infiltration was observed (FIG. 3D). […] There was however no difference in terminally exhausted or progenitor exhausted T cells (FIGS. 3F and 3G). […] There was no difference in CD107a expression (FIG. 3O).

O=c1cc(Cc2ccccc2)n2c(SCc3c(F)cccc3Cl)nnc2[nH]1 [Compound 45, 5-benzyl-3-[(2-chloro-6-fluorobenzyl)sulfanyl][1,2,4]triazolo[4,3-a]pyrimidin-7 (8H)-one]
number of treated T cells in the spleen (2×10^6 cells, spleen (FIG. 3H)): decreased
central memory phenotype in the spleen (2×10^6 cells, spleen (FIG. 3I)): increased
TCF1 expression in the spleen (2×10^6 cells, spleen (FIG. 3J)): trend towards increased
terminally exhausted T cells (2×10^6 cells, tumor (FIG. 3F)): no difference
progenitor exhausted T cells (2×10^6 cells, tumor (FIG. 3G)): no difference
IFNy expression (2×10^6 cells, tumor cells restimulated with OVA peptide (FIG. 3K)): did not show difference
TNF expression (2×10^6 cells, tumor cells restimulated with OVA peptide (FIG. 3L)): did not show difference
IL2 expression (2×10^6 cells, tumor cells restimulated with OVA peptide (FIG. 3M)): did not show difference
Granzyme B expression (2×10^6 cells, tumor cells restimulated with OVA peptide (FIG. 3N)): increased
CD107a expression (2×10^6 cells, tumor cells restimulated with OVA peptide (FIG. 3O)): no difference
T cell infiltration in tumor (2×10^6 cells, tumor upon dissection (FIG. 3D)): no difference
exhausted tumor infiltrating T cells (2×10^6 cells, vs DMSO (FIG. 3E)): more exhausted
B16 tumor growth (2×10^6 treated OT1 cells transferred, vs DMSO (FIG. 3B)): strongly reduced
B16 tumor weight (2×10^6 treated OT1 cells, vs DMSO (FIG. 3C)): strongly reduced
percentage of short-lived effector T cells (10^5 cells, blood 9 days post-ACT (FIG. 2E)): reduced
memory-precursor effector T cells (10^5 cells, blood 9 days post-ACT (FIG. 2F)): increase
cells with a central memory phenotype (10^5 cells, blood 9 days post-ACT (FIG. 2G)): increase
number of transferred cells in blood (10^5 cells, blood 9 days post-ACT, vs DMSO (FIG. 2D)): increase
number of treated T cells in the spleen (10^5 cells, spleen (FIG. 2L)): increased
central memory phenotype in the spleen (10^5 cells, spleen (FIG. 2M)): increased
TCF1 expression in the spleen (10^5 cells, spleen (FIG. 2N)): not significantly altered
IFNy expression (10^5 cells, tumor cells restimulated with OVA peptide (FIG. 2O)): did not show a significant increase
TNF expression (10^5 cells, tumor cells restimulated with OVA peptide (FIG. 2P)): did not show a significant increase
IL2 expression (10^5 cells, tumor cells restimulated with OVA peptide (FIG. 2Q)): did not show a significant increase
Granzyme B expression (10^5 cells, tumor cells restimulated with OVA peptide (FIG. 2R)): did not show a significant increase
expression of CD107a (LAMP1) (10^5 cells, tumor cells restimulated with OVA peptide (FIG. 2S)): increased
treated T cells infiltrating the tumor (10^5 cells, tumor upon dissection (FIG. 2H)): more
exhausted tumor infiltrating T cells (10^5 cells, vs DMSO (FIG. 2I)): not significantly more or less exhausted
B16 tumor growth (10^5 treated OT1 cells transferred, vs DMSO (FIG. 2B)): reduced
Tumor weight (10^5 treated OT1 cells, vs DMSO (FIG. 2C)): not significantly reduced

Reference: patent publication US20240360143A1, “[1,2,4]TRIAZOLO[4,3-A]PYRIMIDIN-7(8H)-ONE AS MITOCHONDRIAL PYRUVATE CARRIER INHIBITORS FOR USE IN THE TREATMENT OF CANCER” (MPC THERAPEUTICS SA, priority 2021, published 2024)
